Structures can show the parent of a compound that is named as a salt.
## CN(C(=O)[C@@H](Cc1ccc2ccccc2c1)N(C)C(=O)/C=C/CC(C)(C)N)[C@@H](CNC(=S)NC1CC1)Cc1ccccc1 (as salt: trifluoroacetic acid salt)
  melting point: 138 to 145 °C
